Measured values taken from patent US6410571B1, “Heterocyclic carboxamide-containing thiourea inhibitors of herpes viruses containing a substituted phenylenediamine group” (American Home Products Corporation, priority 1998, dated 2002).
Values after ≈ are worked out from the molar mass of the structure shown.

How the values were obtained:
[1] = tested on: HCMV wild-type; assay: HCMV yield assay; type: cell-based, human cytomegalovirus; settings: human foreskin fibroblasts; for IC50: Human betaherpesvirus 5, Fibroblast, read-out: IC50 (ug/ml) HCMV
Procedure: Yield assay. Monolayer cultures of human foreskin fibroblasts are infected with HCMV wild-type, typically at a multiplicity of infection equal to 0.2, in the presence of inhibitor compound (varying concentrations). At three days post-infection, total virus produced in these cultures (i.e. virus yield) is assessed by harvesting and titering the virus in 12-well plates of cultured human foreskin fibroblasts (done in the absence of inhibitor). Plaques are quantified at 2 weeks post-infection. An inhibitor of HCMV is identified by the reduction in titer of virus yield in the presence, compared to the titer in the absence of compound. In this assay, the relative anti-HCMV activity of an inhibitor is typically determined by calculating the IC50 or IC90 value, that is, the amount of compound required to reduce the virus yield by 50% or 90%, respectively. Table I describes IC50 data for compounds tested against HCMV.

[2] = tested on: HSV-1; assay: HSV Antiviral (ELISA) Assay; type: cell-based, herpes simplex virus type 1; settings: Vero cells; for IC50: Human alphaherpesvirus 1, read-out: IC50 (ug/ml) HSV
Procedure: Vero cells (ATCC #CCL-81) are plated on 96-well tissue culture plates at 3.5×10^4 cells per 100 μl tissue culture DMEM (Dulbecco's modified Eagle media) supplemented with 2% fetal bovine serum (FBS) in each well. After overnight incubation @37° C. (in 5% CO2) and 30 minutes prior to infection with HSV-1 (multiplicity of infection equal to 0.006), cells are either untreated, or treated with test compound (multiple concentrations) or reference standard drug control. After approximately 24 hours post-infection incubation @37° C. (in 5% CO2), cells are fixed for ELISA assay. The primary antibody is murine anti-HSV glycoprotein D monoclonal primary antibody and the secondary antibody is goat anti-mouse IgG linked to β-galactosidase. Thus the extent of viral replication is determined by assessing β-galactosidase activity by quantifying the generation of the 4-methyl umbeliiferone fluorescent cleavage product after addition of the methyl umbelliferyl-β-D-galactoside (Sigma #M1633) substrate on a microfluorimeter (365 nm for excitation and 450 nm for emission). Antiviral activity (IC50) of the test compound is determined by comparing the flourescence obtained in absence of compound to that obtained in the presence of compound.

[3] = tested on: VZV strain Ellen; assay: VZV Antiviral (ELISA) Assay; type: cell-based, varicella-zoster virus; settings: human foreskin fibroblast cells; for inhibition at 10 µg/mL: Human alphaherpesvirus 3, read-out: % inhibition 10 ug/ml VZV; for inhibition at 10 µg/mL / % inhibition 10 ug/ml VZV: 10 ug/ml; for IC50: Human alphaherpesvirus 3, read-out: IC50 (ug/ml) VZV
Procedure: For the generation of stock VZV to be used in the assay, VZV strain Ellen (ATCC #VR-1367) is used to infect human foreskin fibroblast (HFF) cells at low multiplicity (less than 0.1) and incubated overnight at 37° C. in 5% CO2. After the overnight incubation, the mixture of uninfected and VZV-infected HFF infected cells are then harvested and added to each well of 96-well plates (3.5×10^4 cells in 100 μl DMEM supplemented with 2% FBS) which contain test compound or the reference standard drug control (in 100 μl DMEM supplemented with 2% FBS per well). These cells are incubated for three days at 37° C. in 5% CO2, then fixed for ELISA assay. The primary antibody is murine anti-VZV glycoprotein II monoclonal antibody (Applied Biosystems, Inc. #13-145-100) and the secondary antibody is goat anti-mouse IgG linked to β-galactosidase. Thus the extent of viral replication is determined by assessing β-galactosidase activity by quantifying the generation of the 4-methyl umbelliferone fluorescent cleavage product after addition of the methyl umbelliferyl-β-D-galactoside (Sigma #M1633) substrate on a microfluorimeter (365 nm for excitation and 450 nm for emission). Antiviral activity (IC50) of the test compound is determined by comparing the flourescence obtained in absence of compound to that obtained in the presence of compound.

Molecule | IC50 [1] [µg/mL] | IC50 [2] [µg/mL] | inhibition at 10 µg/mL [3] [%] | IC50 [3] [µg/mL] | IC50 (ug/ml) HCMV [1] [µg/mL] | IC50 (ug/ml) HSV [2] [µg/mL] | % inhibition 10 ug/ml VZV [3] [%] | IC50 (ug/ml) VZV [3] [µg/mL]
COc1cc(OC)c(NC(=S)Nc2ccc(NC(=O)c3ccco3)c(C(=O)Nc3ccccc3)c2)cc1Cl [Example 302, Furan-2-carboxylic acid {4-[3-(5-chloro-2,4-dimethoxy-phenyl)-thioureido]-2-phenylcarbamoyl-phenyl}-amide] | > 10 | 10 (≈ 18.1 µM) | 5 | > 10 |  |  |  | 
COc1cc(OC)c(NC(=S)Nc2ccc(NC(=O)c3ccco3)cc2OC)cc1Cl [Example 390, Furan-2-carboxylic acid {4-[3-(5-chloro-2,4-dimethoxy-phenyl)-thioureido]-3-methoxy-phenyl}-amide] | > 10 | 0.5 (≈ 1.08 µM) | 61 | > 10 |  |  |  | 
COc1cc(OC)c(NC(=S)Nc2ccc(NC(=O)c3ccco3)cc2C)cc1Cl [Example 296, Furan-2-carboxylic acid {4-[3-(5-chloro-2,4-dimethoxy-phenyl)-thioureido]-3-methyl-phenyl}-amide] | 8 (≈ 17.9 µM) | 1.2 (≈ 2.69 µM) | 48 | > 10 |  |  |  | 
COc1cc(OC)c(NC(=S)Nc2ccc(NC(=O)c3ccco3)c(C(F)(F)F)c2)cc1Cl [Example 308, Furan-2-carboxylic acid {4-[3-(5-chloro-2,4-dimethoxy-phenyl)-thioureido]-2-trifluoromethyl-phenyl}-amide] | 10 (≈ 20 µM) | 10 (≈ 20 µM) | 100 | 4 (≈ 8 µM) |  |  |  | 
COc1cc(OC)c(NC(=S)Nc2ccc(NC(=O)c3ccco3)cc2Cl)cc1Cl [Example 356, Furan-2-carboxylic acid {3-chloro-4-[3-(5-chloro-2,4-dimethoxy-phenyl)thioureido]-phenyl}-amide] | 0.4 (≈ 0.858 µM) | 0.5 (≈ 1.07 µM) | 72 | 1.9 (≈ 4.07 µM) |  |  |  | 
COc1cc(OC)c(NC(=S)Nc2ccc(NC(=O)c3ccco3)c(C(=O)c3ccccc3)c2)cc1Cl [Example 294, Furan-2-carboxylic acid {2-benzoyl-4-[3-(5-chloro-2,4-dimethoxy-phenyl)-thioureido]-phenyl}-amide] | > 10 | > 50 | 0 | > 10 |  |  |  | 
COc1cc(OC)c(NC(=S)Nc2cc(O)c(NC(=O)c3ccco3)cc2Cl)cc1Cl [Example 320, Furan-2-carboxylic acid {5-chloro-4-[3-(5-chloro-2,4-dimethoxy-phenyl)-thioureido]-2-hydroxy-phenyl}-amide] | 8 (≈ 16.6 µM) | 8 (≈ 16.6 µM) | 50 | > 10 |  |  |  | 
COc1cc(OC)c(NC(=S)Nc2ccc(NC(=O)c3ccco3)c(C#N)c2)cc1Cl [Example 306, Furan-2-carboxylic acid {4-[3-(5-chloro-2,4-dimethoxy-phenyl)-thioureido]-2-cyano-phenyl}-amide] | 2.5 (≈ 5.47 µM) | > 10 | 33 | > 10 |  |  |  | 
Furan-2-carboxylic acid {4-[3-(5-chloro-2,4-dimethoxy-phenyl)-thioureido]-3-cyano-phenyl}-amide [Example 382] |  |  |  |  | >10 | >10 | 46 | >10
5-[3-(5-Chloro-2,4-dimethoxy-phenyl)-thioureido]-2-[(furan-2-carbonyl)-amino]-benzoic acid [Example 339] |  |  |  |  | 50 | >50 | 11 | >10
COc1cc(OC)c(NC(=S)Nc2cc(OC)c(NC(=O)c3ccco3)cc2C)cc1Cl [Example 287, Furan-2-carboxylic acid {4-[3-(5-chloro-2,4-dimethoxy-phenyl)-thioureido]-2-methoxy-5-methyl-phenyl}-amide] | > 50 | 8 (≈ 16.8 µM) | 5 | > 10 |  |  |  | 
COc1cc(OC)c(NC(=S)Nc2ccc(NC(=O)c3ccco3)c3ccccc23)cc1Cl [Example 324, Furan-2-carboxylic acid {4-[3-(5-chloro-2,4-dimethoxy-phenyl)-thioureido]-naphthalen-1-yl}-amide] | 8 (≈ 16.6 µM) | 4 (≈ 8.3 µM) | 24 | > 10 |  |  |  | 
COc1cc(OC)c(NC(=S)Nc2ccc(NC(=O)c3ccco3)c(Cl)c2)cc1Cl [Example 307, Furan-2-carboxylic acid {2-chloro-4-[3-(5-chloro-2,4-dimethoxy-phenyl)-thioureido]-phenyl}-amide] | 5 (≈ 10.7 µM) | > 10 | 30 | > 10 |  |  |  | 
COc1cc(OC)c(NC(=S)Nc2cc(OC)c(NC(=O)c3ccco3)cc2OC)cc1Cl [Example 276, Furan-2-carboxylic acid {4-[3-(5-chloro-2,4-dimethoxy-phenyl)-thioureido]-2,5-dimethoxy-phenyl}-amide] | > 10 | > 10 | 75 | 4 (≈ 8.13 µM) |  |  |  | 
COc1cc(OC)c(NC(=S)Nc2ccc(NC(=O)c3ccco3)c(OC)c2)cc1Cl [Example 304, Furan-2-carboxylic acid {4-[3-(5-chloro-2,4-dimethoxy-phenyl)-thioureido]-2-methoxy-phenyl}-amide] | 7 (≈ 15.2 µM) | 8 (≈ 17.3 µM) | 44 | 11 (≈ 23.8 µM) |  |  |  | 
COc1cc(OC)c(NC(=S)Nc2ccc(NC(=O)c3ccco3)c(C)c2)cc1Cl [Example 311, Furan-2-carboxylic acid {4-[3-(5-chloro-2,4-dimethoxy-phenyl)-thioureido]-2-methyl-phenyl}-amide] | 6 (≈ 13.5 µM) | 12 (≈ 26.9 µM) | 13 | > 10 |  |  |  | 
COc1cc(OC)c(NC(=S)Nc2cc(C)c(NC(=O)c3ccco3)cc2Cl)cc1Cl [Example 328, Furan-2-carboxylic acid {5-chloro-4[3-(5-chloro-2,4-dimethoxy-phenyl)-thioureido]-2-methyl-phenyl}-amide] | > 10 | > 10 | 44 | > 10 |  |  |  | 
COc1cc(OC)c(NC(=S)Nc2ccc(NC(=O)c3ccco3)cc2C(F)(F)F)cc1Cl [Example 858, Furan-2-carboxylic acid {4-[3-(5-chloro-2,4-dimethoxy-phenyl)-thioureido]-3-trifluoromethyl-phenyl}-amide] | 2 (≈ 4 µM) | 2.5 (≈ 5 µM) | 26 | > 10 |  |  |  | 
